The subject of one test is hem1Δ yeasts. Put plainly: Phospholipid fatty acid content by mass spectrometry in lipo-intoxicated hem1Δ yeasts. The conditions noted are these: hem1Δ, SFA accumulation, 100 μM compound; for production of di-unsaturated phospholipids (level of PC species 36:2): 7 h. The format is cell-based, Saccharomyces cerevisiae. The protocol: The hem1Δ yeasts were cultivated in standard conditions (control) or in conditions of SFA accumulation without (Ø) or with the addition of 100 μM of oleic acid, LPA or OAG as indicated.
FIG. 6A—After 7 h of incubation, the phospholipids (PL) were extracted and the different species of phosphatidylcholine (PC), which constitute the predominantly present PL were analyzed by mass spectrometry in positive mode, according to Pineau et al. (2008).
FIG. 6B—All the species of PL detectable in these conditions of mass spectrometry were analyzed to globally quantify the content in SFA forms.
The hem1Δ strain is cultivated in a YPG^A, YPG^+ or YPG^+ liquid medium+200 μM of compound to be tested in aerobic conditions, under stirring and at 28° C. for 7 h, starting from an initial cell concentration of 2·10^6 cells/mL. At the end of the culture, 10^8 cells are collected in order to carry out the extraction of the total lipids. After the cells have been put in suspension in 1 mL of distilled water at 4° C., 500 μL of glass beads (Ø 0.6 mm) are added and the whole mixture then undergoes three sequences of 20 seconds at 5000 rpm in a stirrer (the tubes are kept on ice between each of the three sequences). The cellular lysate then obtained, complemented with water for rinsing the beads (1 mL), is then transferred into a 40 mL glass tube (Corex™) and then the lipids are extracted by using a methanol:chloroform ratio of 2:1 (v/v). Initially, 6 mL of methanol are added and the entire mixture is vortexed for 30 seconds and then incubated for 15 minutes at 65° C. Once the mixture has been cooled to ambient temperature, […] of chloroform is added and then the entire mixture is again vortexed for 30 seconds before allowing the extraction to take place for 16 h. Subsequently, the sample is centrifuged for 12 minutes at 10000 g and then the supernatant is transferred into a new Corex™ tube. After the addition of 2 mL of chloroform and then 4 mL of distilled water, the entire mixture is vortexed for 30 seconds and then centrifuged for 8 minutes at 3000 g. After elimination of the resultant upper phase, the lower organic phase is collected in a hemolysis tube made of glass. Finally, the solvent is evaporated under a nitrogen stream at 80° C. to obtain total cell lipid samples.
The samples of total cell lipids are put back into suspension in 1 mL of dichloromethane in being vortexed for 30 seconds. The entire mixture is deposited on a silica column (BOND ELUT-SI, 100 mg 1 mL) preconditioned with 3 mL of methanol and then 2 mL of dichloromethane successively. The fraction retained by the column is then washed with 2 mL of dichloromethane and then 2 mL of acetone successively. Finally, 2 mL of a mixture of chloroform/methanol/water 50:45:5 (v/v/v) are deposited on the column and the phospholipids thus eluted are collected in a glass hemolysis tube. The solvent is evaporated under nitrogen at 80° C. to obtain the samples of cellular phospholipids.
Once put back into suspension in 100 μL of mixture Mix^− (isopropanol/acetonitrile/water 2:1:1 (v/v/v)+triethylamine 1% (v/v)) or mixture Mix^+ (isopropanol/acetonitrile/water 2:1:1 (v/v/v)+formic acid 1% (v/v)), the samples are analyzed by mass spectrometry (Electro Spray Ionization-Mass Spectrometry (ESI-MS)) in negative or positive mode respectively and the results obtained serve to analyze the fatty acid content of the different species of phospholipids.

In test [1] the test system is BRIN-BD11 pancreatic β-cells. Put plainly: Cell viability test (propidium iodide, flow cytometry) of pancreatic β-cells lipo-intoxicated by palmitic acid. The format is cell-based, rat. The conditions noted are these: BRIN-BD11, palmitic acid 200 μM, growing concentrations of compound. How it is done:
The BRIN-BD11 pancreatic β-cells were cultivated in controlled conditions or in the presence of an exogenous source of saturated fatty acids (palmitic acid 200 μM), as described by Dhayal& Morgan (2011) in order to generate conditions of lipotoxicity with or without addition of OAG or LPA.
FIG. 7A—The proportion of dead cells was estimated in the absence (Ctrl) or in the presence of palmitic acid (Palm), for growing concentrations of OAG and LPA.
The lipidic species are prepared in ethanol and then complexed with bovine serum albumen (BSA initially devoid of fatty acids) by incubation for one hour at 37° C. […]
The pancreatic β-cell cell line (BRIN-BD11) of rats is cultivated in an RPMI-1640 complete medium containing glucose at 11 mM and supplemented with 10% (v/v) of fetal calf serum (FCS), 2 mM of L-glutamine, 100 U/mL of penicillin and 100 μg/mL of streptomycin. […] In the case of the controlled conditions, identical quantities of BSA and ethanol were then used. […] After incubation at 10 minutes on ice, the samples thus obtained are analyzed by cytometry in flux. A Beckman Coulter EPICS XL MCL is used for quantification, an FL3 channel serves to detect emissions from PI interposed in the DNA and the analysis is done by means of the software EXPO32 ADC (Applied Cytometry Systems, V 1.1 build 207).

Entries after “also recorded” stand apart in the source; their conditions may differ.

In the case of `CCCCCCCC/C=C\CCCCCCCC(=O)OC[C@@H](O)COP(=O)(O)O` [LPA, 1-oleoyl-sn-glycerol-3-phosphate], the “production of di-unsaturated phospholipids (level of PC species 36:2)” value with hem1Δ yeasts is “increase of the level of this species”. In addition, the “apoptosis (proportion of dead cells) of pancreatic β-cells in the presence of saturated fatty acids” value in test [1] is recorded as “prevent apoptosis”.
As for `CCCCCCCC/C=C\CCCCCCCC(=O)OC[C@H](CO)OC(C)=O` [OAG, 1-oleoyl-2-acetyl-sn-glycerol], in the test on hem1Δ yeasts, the “index of saturation of phospholipids compared with control condition” value is listed as “does not restore an index of saturation comparable to the one observed in the control condition” and the “production of di-unsaturated phospholipids (level of PC species 36:2)” value is given as “does not restore the production; also recorded: not the case”. In addition, the “apoptosis (proportion of dead cells) of pancreatic β-cells in the presence of saturated fatty acids” value in test [1] is reported as “prevent apoptosis”.

Values taken from patent US9821000B2, “Compounds, compositions and corresponding uses for preventing and/or treating of dyslipidemia” (CENTRE NATIONAL DE LA RECHERCHE SCIENTIFIQUE (CNRS), priority 2013, dated 2017).
